Data set [1] has as its system osteoblast-like MG63 cells. Description: LDH cytotoxicity assay on osteoblast-like cells. The format is cell-based, human. The conditions noted are these: 1% Tween-20, Positive Control, 24 h, mean, SD ± 4.2%. The protocol: MG63 cells (ATCC, Rockville, MD, USA) were thawed from a frozen stock and cultured in DMEM (11885-084, Thermo Fisher Scientific, Segrate, Italy) supplemented with non-inactivated 10% fetal bovine serum (FBS, F7524, Sigma-Aldrich, Milan, Italy) and 100× Penicillin/Streptomycin solution (P/S, 10,000 units penicillin and 10 mg streptomycin/mL, P4333, Sigma-Aldrich, Milan, Italy), under standard culture conditions (i.e., at 37 °C, in a humidified atmosphere with 5% CO2). Cells were regularly subcultured 2–3 times a week by using TrypLE Select 1× (GIBCO, Thermo Fisher Scientific, Segrate, Italy).
A suspension of MG63 cells was prepared in complete DMEM at a concentration of 5 × 10^4 cells/mL. […]
Cytotoxicity was assessed by measuring the release of lactate dehydrogenase (LDH) from damaged cells by the LDH Cytotoxicity Assay (ab197004, Abcam, Cambridge, UK), strictly following the instructions of the manufacturer. […] After 10 min shaking, the plate was read in fluorescence (excitation: 535 nm; emission 587 nm) by an Infinite 200 PRO mod. M PLEX multifunction plate reader (Tecan Group Ltd., Männedorf, Switzerland). […]
Data in relative fluorescence units (RFU) from the investigation on KSL-W suppression of S. aureus cytotoxicity were processed as follows. […]

In data set [2] the test system is P. aeruginosa cra3840 (PA 02). Type of data set: cell-based. The following applies: cra3840 (PA 02, 24 h). The text has this: (§1) The experimental scheme reported in Figure 6 helped to simplify and optimize the in vitro testing of the antibacterial activity of the different AMPs. The initial transparent microtiter plate for the determination of the minimum inhibitory concentration (MIC) by optical density (OD) measurement was conveniently used as a starting point not only for the alterative determination of the MIC by luminescence but also for the minimum bactericidal concentration (MBC) and for the minimum biofilm inhibitory concentration (MBIC), as explained below. For every test peptide, at least three independent experiments were performed on each bacterial strain per test condition (100% MHB and 20% MHB). The sole exception to this rule was when MIC values were on rare occasions found to be greater than 500 µg/mL. Under these circumstances, two consecutive experiments were performed to confirm the results. In this case, the antibacterial activity was considered insignificant and the third experiment was generally considered unnecessary.
(§2) The antibacterial properties of the test AMPs were assayed under two distinct conditions of bacterial culture: (i) with bacteria cultured in undiluted Mueller–Hinton II Broth (MHB II) and (ii) with bacteria cultured in diluted MHB II as earlier described in Campoccia et al.. Briefly, a few colonies of each bacterial strain, taken from overnight cultures on Mueller–Hinton Agar plates (MHA, PO50007A, ThermoScientific, Thermo Fisher Scientific, Segrate, Italy), were resuspended in Mueller–Hinton II Broth (MHB II, 24107, Liofilchem, Roseto degli Abruzzi, Italy), either undiluted or at a 20% dilution in deionized water. The concentration of bacteria was adjusted to approximately 10^8 CFU/mL, as estimated by optical density reading at 625 nm, using a Hewlett Packard G1103A spectrophotometer (Waldbronn, Germany). The bacterial suspension was further diluted 1:100 in 100% or 20% MHB II.
(§3) Serial 1:2 dilutions of all the test peptides were prepared in sterile deionized water starting from a stock solution of 1 mg/mL. Microtiter plates (96-Well CytoOne® Plate, CC7672-7596, Starlab S.r.l., Milano, Italy) were prepared by adding a volume of 100 µL of inoculum to 100 µL of treatment. Each AMP dilution was assayed in triplicate; each microplate included triplicate wells for the blank (100 µL of sterile distilled water and 100 µL of sterile MHB II), and 3 to 6 wells for reference control of 100% growth (100 µL of sterile deionized water and 100 µL of MHB II inoculated with the bacterium). Positive controls were performed in triplicate wells with 100 µL of a 10 mg/mL gentamicin solution (G1272, Sigma Aldrich, Milan, Italy) and with 100 µL of a solution containing 10,000 units/mL of penicillin and 10,000 µg/mL of streptomycin (penicillin–streptomycin, 15140-122, Life Technologies, Monza, Italy).
(§4) The wells of the microplate, initially used for the determination of the MIC, were rinsed twice with 220 µL of phosphate-buffered solution (PBS) to remove loosely attached and planktonic bacteria. A total of 100 µL of fresh PBS and 100 µL of Bac-Titer Glo solution (G8231, Promega Italia S.r.l., Milan, Italy) were added to each well. After a 10 min incubation, a volume of 100 µL was transferred to a new microplate for luminescence determination as described above. As a general rule, the MBIC value was identified as the concentration at which a reduction of at least a log in the metabolic activity was observed.

In data set [3] the test system is S. aureus cra4030 (SA 01). Type of data set: cell-based.
Description: as §1, §2, §3, §4

The subject of data set [4] is E. faecalis cra4033 (EF 02). Type of data set: cell-based.
Description: as §1, §2, §3, §4

Data set [5] relates to S. aureus cra2198 (SA 02). Type of data set: cell-based. The conditions noted are these: cra2198 (SA 02, 24 h).
Description: as §1, §2, §3, §4

Data set [6] has as its system S. epidermidis cra4029 (SE 02). Type of data set: cell-based. The following applies: cra4029 (SE 02).
Description: as §1, §2, §3, §4

The test system of data set [7] is P. aeruginosa cra4004 (PA 01). Type of data set: cell-based.
Description: as §1, §2, §3, §4

The test system of the next data set is E. coli cra4038 (EC). The format is cell-based. The following applies: cra4038 (EC).
Description: as §1, §2, §3, §4

For data set [8], the system named is P. aeruginosa cra3840 (PA 02). Type of data set: cell-based.
Description: as §1, §2, §3
(§5) After a 1-day incubation at 37 °C, the MIC was determined by two distinct methods: (1) optical density measurement and (2) bioluminescence reading. In the first case, the optical density of the microtiter plates was read directly at a wavelength of 600 nm and the MIC was estimated from the curves obtained by plotting the OD measurements. For the bioluminescence reading, after gentle resuspension, 100 µL of each treated culture was transferred to a new 96-well non-treated plate (236105/237105, Life Technologies, Monza, Italy) and the metabolic activity was determined by the kit Bac-Titer Glo Microbial Cell Viability Assay (G8231, Promega Italia S.r.l, Milan, Italy). Optical density and bioluminescence were read by a Modulus II multifunction plate reader (Turner BioSystems, Sunnyvale, CA, USA) or, alternatively, by an Infinite M Plex (Tecan Group Ltd., Männedorf, Switzerland). As earlier described in [24], in the case of luminescence, the MIC was identified from the curves of growth inhibition as the first concentration leading to a 1-log reduction in bacterial growth (i.e., 90% growth inhibition). […]

The test system of data set [9] is P. aeruginosa cra4004 (PA 01). Type of data set: cell-based.
Description: as §1, §2, §3, §5
The source holds these as a separate data set.

2 compounds from paper PMC12386934, “Characteristics and Potential of KSL, KSL-W, and Dadapin-1 Antimicrobial Peptides for Preventing Infections of Orthopedic Prosthetic Devices: Identifying the Most Robust Candidate” (International Journal of Molecular Sciences, 2025) can be followed below.

≈ marks a conversion by molar mass, not a printed value. Where a SMILES comes first, the peptide text is derived from it.

Regarding Tween-20, the “cytotoxicity (LDH, % of Lysate Control)” value in [1] was 50.3%.

For `CC(C)[C@H](NC(=O)[C@H](CCCCN)NC(=O)[C@H](Cc1ccccc1)NC(=O)[C@@H](NC(=O)[C@@H](NC(=O)[C@H](CCCCN)NC(=O)[C@@H](N)CCCCN)C(C)C)C(C)C)C(=O)N[C@@H](CCCCN)C(=O)N[C@@H](Cc1ccccc1)C(=O)N[C@@H](CCCCN)C(=O)O` [KSL] (H-KKVVFKVKFK-OH), the MBIC in [2] was 3.91 µg/mL; in data set [3] (cra4030 (SA 01, 24 h)), 1.95 µg/mL; in data set [4] (cra4033 (EF 02, 24 h)), 250 µg/mL; in data set [5], 31.25 µg/mL. Moreover, the “LR, Log10 reduction in bacterial metabolism for a given MBIC” value in data set [3] (cra4030 (SA 01)) came out at 2 LR; in [4] (cra4033 (EF 02)), 2 LR; in data set [6] it was 2 LR; in [7] it was 3 LR; in the data set with E. coli cra4038 (EC) it was 3 LR. Further, the MIC in data set [8] and in [9] was 3.91 µg/mL (≈ 3.13 µM) throughout.
